Holding throughout (assay type): cell-based
The test system of test [1] is YAP/TAZ-TEAD transcription. Description: Reporter gene assay (TEAD-responsive element luciferase reporter in Hek293T cells) for inhibition of YAP/TAZ-TEAD transcription. The following applies: 24 hours incubation. As to the method: Hek293T cells are cultured in DMEM supplemented with 10% fetal bovine serum, Sodium pyruvate, Sodium bicarbonate, L-glutamine. The cells are harvested and transiently transfected with TEAD-responsive element luciferase reporter. Transfected cells are plated in 384-wells plate containing pre-diluted compounds. After 24 hours incubation at 37° C./5% CO2, assay plates were cooled down to RT and levelled to an equal volume per well, prior to the addition of 25 uL luciferase substrate SteadyLite (Perkin Elmer)/well. The plate was shaken for 10 min at 600 rpm, centrifuged for 1 min at 500 rpm and measured with an Envision reader (PerkinElmer). The amount of relative light units produced by the TEAD reporter is used to calculated percent of inhibition.
The percent of reporter inhibition was calculated in the presence of a positive control inhibitor (100% inhibition)versus a condition with the presence of the vehicle basal activity of the reporter (0% inhibition). The ability of a test compound to inhibit this activity was determined as:
Percentage inhibition=[1-((RLU determined in the presence of vehicle−RLU determined for sample with test compound present) divided by (RLU determined in the presence of vehicle−RLU determined for sample with positive control inhibitor))]*100
The activities of example compounds tested are depicted in Table 3. The activity ranges A, B and C refer to IC50 values in the reporter gene assay as follows: “A”: IC50<1 μM; “B”: 1 μM≤IC50≤20 μM and “C”: IC50>20 μM; NT=not tested.

In a further test the test system is NCI-H226. Description: Mesothelioma cell line proliferation assay (ATPlite), NCI-H226. Conditions: Homo sapiens, 144 h; NCI-H226 mesothelioma cells, 6 days incubation, ATPlite cell viability. The protocol: (§1) Mesothelioma cell lines, NCI-H226 and NCI-H2052 (all sourced from the ATCC cell culture collection) are plated in 96-well plates (Corning® 96 Well White Polystyrene Microplate clear flat bottom, white polystyrene (TC-Treated)), at 1500 cells/well in full medium (RPMI 1640 ATCC modification with L-glutamine, HEPES, Phenol Red, Sodium Pyruvate, High glucose, Low sodium bicarbonate and 10% fetal bovine serum). Cells are incubated overnight at 37° C. in an incubator with 5% CO2. Then compounds, dissolved in DMSO, are added in dose-response. Cells are incubated with compound dilutions for another 6 days at 37° C. in an incubator with 5% CO2. Cell viability is quantitated using the ATPlite kit (Perkin-Elmer) and the luminescence is read-out using an Envision instrument (Perkin-Elmer). The amount of relative light units produced using the ATPlite kit is used to calculated percent of inhibition.
(§2) The activities of some example compounds are depicted in Table 4. The activity ranges A, B and C refer to EC50 values in the mesothelioma cell line proliferation assay as described as follows: “A”: EC50<1 μM; “B”: 1 μM≤EC50≤10 μM and “C”: EC50>10 μM; NT: not tested.

In a further test the test system is NCI-H2052. Briefly: Mesothelioma cell line proliferation assay (ATPlite), NCI-H2052. Conditions: Homo sapiens, 144 h; NCI-H2052 mesothelioma cells, 6 days incubation, ATPlite cell viability. The protocol: as §1, §2

Consider `C=CC(=O)NC1CCc2ccccc2N(c2ccc(C(F)(F)F)cc2)C1` (single isomer, unassigned) [Cpd. No. 008-En1, (R)- or (S)-N-(1-(4-(trifluoromethyl)phenyl)-2,3,4,5-tetrahydro-1H-benzo[b]azepin-3-yl)acrylamide], for which the IC50 (commonly the point on the concentration scale where inhibition reaches its midpoint) in test [1] (Homo sapiens, HEK-293T) was under 1000 nM.
`O=C1C(NCCO)CCc2ccccc2N1c1ccc(C(F)(F)F)cc1` (stereo not drawn) [Cpd. No. 004, 3-((2-hydroxyethyl)amino)-1-(4-(trifluoromethyl)phenyl)-1,3,4,5-tetrahydro-2H-benzo[b]azepin-2-one]: the IC50 in test [1] (Homo sapiens, HEK-293T) lay within 1000 to 20000 nM.
On the same count and under the same terms, to `NC1CCc2ccccc2N(c2ccc(C(F)(F)F)cc2)C1` (stereo not drawn) [Cpd. No. 001, 1-(4-(trifluoromethyl)phenyl)-2,3,4,5-tetrahydro-1H-benzo[b]azepin-3-amine] belongs 1000 to 20000 nM.
In test [1], `OCCNC1CCc2ccccc2N(c2ccc(C(F)(F)F)cc2)C1` (single isomer, unassigned) [Cpd. No. 003-En2, (R)- or (S)-2-((1-(4-(trifluoromethyl)phenyl)-2,3,4,5-tetrahydro-1H-benzo[b]azepin-3-yl)amino)ethan-1-ol] yielded a concentration for half-maximal inhibition (IC50) of 1000 to 20000 nM.
Consider `OCCNC1CCc2ccccc2N(c2ccc(C(F)(F)F)cc2)C1` (single isomer, unassigned) [Cpd. No. 003-En1, (R)- or (S)-2-((1-(4-(trifluoromethyl)phenyl)-2,3,4,5-tetrahydro-1H-benzo[b]azepin-3-yl)amino)ethan-1-ol], for which the IC50 in test [1] (Homo sapiens, HEK-293T) lay within 1000 to 20000 nM.
On the same count and under the same terms, to `C=CC(=O)NC1Cc2cnccc2N(c2ccc(C(F)(F)F)cc2)C1=O` (stereo not drawn) [Cpd. No. 015, N-(2-oxo-1-(4-(trifluoromethyl)phenyl)-1,2,3,4-tetrahydro-1,6-naphthyridin-3-yl)acrylamide] belongs 1000 to 20000 nM.
Take `CCC(=O)NC1CCc2ccccc2N(c2ccc(C(F)(F)F)cc2)C1` (stereo not drawn) [Cpd. No. 009, N-(1-(4-(trifluoromethyl)phenyl)-2,3,4,5-tetrahydro-1H-benzo[b]azepin-3-yl)propionamide]: in test [1] (Homo sapiens, HEK-293T), the IC50 was in the range of 1000 to 20000 nM.
With `C=CC(=O)NC1CCc2ccccc2N(c2ccc(C(F)(F)F)cc2)C1` (stereo not drawn) [Cpd. No. 008, N-(1-(4-(trifluoromethyl)phenyl)-2,3,4,5-tetrahydro-1H-benzo[b]azepin-3-yl)acrylamide], the 50% effective concentration (EC50) in the test on NCI-H226 and with NCI-H2052 was under 1000 nM each time. Moreover, in test [1] (Homo sapiens, HEK-293T), the half-maximal inhibitory concentration (IC50) was 1000 to 20000 nM.
In the case of `O=C1C(NCCCO)CCc2ccccc2N1c1ccc(C(F)(F)F)cc1` (stereo not drawn) [Cpd. No. 007, 3-((3-hydroxypropyl)amino)-1-(4-(trifluoromethyl)phenyl)-1,3,4,5-tetrahydro-2H-benzo[b]azepin-2-one], the 50% inhibitory concentration (IC50) in test [1] (Homo sapiens, HEK-293T) was over 20000 nM.
`O=C1CCCN(c2ccc(C(F)(F)F)cc2)c2ccc(NCCO)cc21` [Cpd. No. 011, 7-((2-hydroxyethyl)amino)-1-(4-(trifluoromethyl)phenyl)-1,2,3,4-tetrahydro-5H-benzo[b]azepin-5-one]: the half-inhibitory concentration (IC50) in test [1] (Homo sapiens, HEK-293T) was 1000 to 20000 nM.
`OCCNC1CCc2ccccc2N(c2ccc(C(F)(F)F)cc2)C1` (stereo not drawn) [Cpd. No. 003, 2-((1-(4-(trifluoromethyl)phenyl)-2,3,4,5-tetrahydro-1H-benzo[b]azepin-3-yl)amino)ethan-1-ol]: the EC50 with NCI-H226 and in the test with NCI-H2052 was over 10000 nM in each case. This compound also displayed an IC50 in test [1] (Homo sapiens, HEK-293T) of 1000 to 20000 nM.
Consider `C=CC(=O)NC1CCc2ccccc2N(c2ccc(C(F)(F)F)cc2)C1` (single isomer, unassigned) [Cpd. No. 008-En2, (R)- or (S)-N-(1-(4-(trifluoromethyl)phenyl)-2,3,4,5-tetrahydro-1H-benzo[b]azepin-3-yl)acrylamide], for which the 50% inhibitory concentration (IC50) in test [1] is under 1000 nM.
In test [1] (Homo sapiens, HEK-293T), `C=CC(=O)NC1CCc2ccccc2N(c2ccc(C(F)(F)F)cc2)C1=O` (stereo not drawn) [Cpd. No. 010, N-(2-oxo-1-(4-(trifluoromethyl)phenyl)-2,3,4,5-tetrahydro-1H-benzo[b]azepin-3-yl)acrylamide] displayed an IC50 of over 20000 nM.
In turn, `O=C(O)CCNC1CCc2ccccc2N(c2ccc(C(F)(F)F)cc2)C1` (stereo not drawn) [Cpd. No. 006, 3-((1-(4-(trifluoromethyl)phenyl)-2,3,4,5-tetrahydro-1H-benzo[b]azepin-3-yl)amino)propanoic acid] registered a concentration for half-maximal inhibition (IC50) in test [1] (Homo sapiens, HEK-293T) of over 20000 nM.
As for `C=CC(=O)NC1Cc2c(F)cccc2N(c2ccc(C(F)(F)F)cc2)C1=O` (stereo not drawn) [Cpd. No. 014, N-(5-fluoro-2-oxo-1-(4-(trifluoromethyl)phenyl)-1,2,3,4-tetrahydroquinolin-3-yl)acrylamide], the half-maximal effective concentration (EC50) in the test on NCI-H226 and with NCI-H2052 was under 1000 nM throughout. The compound also yielded an IC50 in test [1] (Homo sapiens, HEK-293T) of under 1000 nM.
In test [1] (Homo sapiens, HEK-293T), `O=C1CCCN(c2ccc(C(F)(F)F)cc2)c2ccc(NCCCO)cc21` [Cpd. No. 012, 7-((3-hydroxypropyl)amino)-1-(4-(trifluoromethyl)phenyl)-1,2,3,4-tetrahydro-5H-benzo[b]azepin-5-one] displayed an IC50 of over 20000 nM.
In turn, `OCCCNC1CCc2ccccc2N(c2ccc(C(F)(F)F)cc2)C1` (stereo not drawn) [Cpd. No. 005, 3-((1-(4-(trifluoromethyl)phenyl)-2,3,4,5-tetrahydro-1H-benzo[b]azepin-3-yl)amino)propan-1-ol] showed an IC50 in test [1] (Homo sapiens, HEK-293T) of 1000 to 20000 nM.
Same read-out and setting: to `NC1CCc2ccccc2N(c2ccc(C(F)(F)F)cc2)C1=O` (stereo not drawn) [Cpd. No. 002, 3-amino-1-(4-(trifluoromethyl)phenyl)-1,3,4,5-tetrahydro-2H-benzo[b]azepin-2-one] belongs over 20000 nM.
`C=CC(=O)NC1Cc2ccccc2N(c2ccc(C(F)(F)F)cc2)C1=O` (stereo not drawn) [Cpd. No. 013, N-(2-oxo-1-(4-(trifluoromethyl)phenyl)-1,2,3,4-tetrahydroquinolin-3-yl)acrylamide]: the EC50 with NCI-H226 and in the test on NCI-H2052 was under 1000 nM in each case. This compound also registered an IC50 in test [1] (Homo sapiens, HEK-293T) of under 1000 nM.

These data come from patent publication US12378202B2, “Tetrahydrobenzoazepinones and related analogs for inhibiting YAP/TAZ-TEAD” (THE KATHOLIEKE UNIVERSITEIT LEUVEN, priority 2021, dated 2025).
